In ChEMBL document CHEMBL6120985, “Discovery of a potent PARP1 PROTAC as a chemosensitizer for the treatment of colorectal cancer” (Eur J Med Chem, 2025):

Key:
[1] = molecular target: T1, Protein cereblon/Poly [ADP-ribose] polymerase 1 (Homo sapiens, UniProt P09874+Q96SW2); experiment: PROTAC activity at CRBN/PARP1 in human HCT-116 cells assessed as maximum degradation of PARP1 relative to control; format: cell-based
Target sequence in this assay (P09874 2-1014 limits assumed): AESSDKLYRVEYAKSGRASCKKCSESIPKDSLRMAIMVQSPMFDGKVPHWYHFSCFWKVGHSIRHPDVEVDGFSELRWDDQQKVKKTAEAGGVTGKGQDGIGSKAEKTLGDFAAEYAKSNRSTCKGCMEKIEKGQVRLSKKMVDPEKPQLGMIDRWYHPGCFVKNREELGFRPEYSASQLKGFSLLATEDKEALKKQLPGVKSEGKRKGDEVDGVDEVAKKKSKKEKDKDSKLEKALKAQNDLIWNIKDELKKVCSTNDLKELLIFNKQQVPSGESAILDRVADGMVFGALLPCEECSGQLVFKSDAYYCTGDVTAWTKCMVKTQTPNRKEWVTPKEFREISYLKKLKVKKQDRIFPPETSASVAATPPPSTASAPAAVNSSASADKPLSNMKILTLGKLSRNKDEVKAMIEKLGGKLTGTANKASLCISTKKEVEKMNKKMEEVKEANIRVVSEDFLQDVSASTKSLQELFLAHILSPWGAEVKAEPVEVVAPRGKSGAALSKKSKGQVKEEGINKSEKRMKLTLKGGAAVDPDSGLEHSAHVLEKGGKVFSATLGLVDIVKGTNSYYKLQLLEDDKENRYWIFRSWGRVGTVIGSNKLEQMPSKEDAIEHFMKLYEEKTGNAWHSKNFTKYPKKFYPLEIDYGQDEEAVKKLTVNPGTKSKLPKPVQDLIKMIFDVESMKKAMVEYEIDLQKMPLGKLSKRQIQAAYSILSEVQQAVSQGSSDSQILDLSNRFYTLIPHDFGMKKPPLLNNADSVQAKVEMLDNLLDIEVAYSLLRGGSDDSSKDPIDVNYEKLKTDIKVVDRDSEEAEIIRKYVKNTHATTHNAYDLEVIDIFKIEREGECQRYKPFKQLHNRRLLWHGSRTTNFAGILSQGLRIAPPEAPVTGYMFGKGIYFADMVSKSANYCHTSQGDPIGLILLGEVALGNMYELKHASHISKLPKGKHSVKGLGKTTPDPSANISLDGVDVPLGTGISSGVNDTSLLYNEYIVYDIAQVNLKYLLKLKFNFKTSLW
Target sequence in this assay (Q96SW2 whole entry partner): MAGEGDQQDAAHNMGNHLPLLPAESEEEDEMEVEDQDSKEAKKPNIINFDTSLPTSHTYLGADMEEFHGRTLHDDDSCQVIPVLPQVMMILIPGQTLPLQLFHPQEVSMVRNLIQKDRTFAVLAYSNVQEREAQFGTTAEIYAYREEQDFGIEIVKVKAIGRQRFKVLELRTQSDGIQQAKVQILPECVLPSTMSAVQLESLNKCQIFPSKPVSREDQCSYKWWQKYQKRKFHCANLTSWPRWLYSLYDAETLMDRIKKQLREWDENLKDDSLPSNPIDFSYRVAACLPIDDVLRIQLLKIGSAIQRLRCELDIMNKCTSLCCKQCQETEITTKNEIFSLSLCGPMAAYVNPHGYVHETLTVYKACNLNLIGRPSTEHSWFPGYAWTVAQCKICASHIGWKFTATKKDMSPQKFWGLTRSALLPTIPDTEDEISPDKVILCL

[2] = molecular target: T1, Protein cereblon/Poly [ADP-ribose] polymerase 1; experiment: PROTAC activity at CRBN/PARP1 in human HCT-116 cells assessed as degradation of PARP1; format: cell-based
Target sequence in this assay (P09874 whole entry): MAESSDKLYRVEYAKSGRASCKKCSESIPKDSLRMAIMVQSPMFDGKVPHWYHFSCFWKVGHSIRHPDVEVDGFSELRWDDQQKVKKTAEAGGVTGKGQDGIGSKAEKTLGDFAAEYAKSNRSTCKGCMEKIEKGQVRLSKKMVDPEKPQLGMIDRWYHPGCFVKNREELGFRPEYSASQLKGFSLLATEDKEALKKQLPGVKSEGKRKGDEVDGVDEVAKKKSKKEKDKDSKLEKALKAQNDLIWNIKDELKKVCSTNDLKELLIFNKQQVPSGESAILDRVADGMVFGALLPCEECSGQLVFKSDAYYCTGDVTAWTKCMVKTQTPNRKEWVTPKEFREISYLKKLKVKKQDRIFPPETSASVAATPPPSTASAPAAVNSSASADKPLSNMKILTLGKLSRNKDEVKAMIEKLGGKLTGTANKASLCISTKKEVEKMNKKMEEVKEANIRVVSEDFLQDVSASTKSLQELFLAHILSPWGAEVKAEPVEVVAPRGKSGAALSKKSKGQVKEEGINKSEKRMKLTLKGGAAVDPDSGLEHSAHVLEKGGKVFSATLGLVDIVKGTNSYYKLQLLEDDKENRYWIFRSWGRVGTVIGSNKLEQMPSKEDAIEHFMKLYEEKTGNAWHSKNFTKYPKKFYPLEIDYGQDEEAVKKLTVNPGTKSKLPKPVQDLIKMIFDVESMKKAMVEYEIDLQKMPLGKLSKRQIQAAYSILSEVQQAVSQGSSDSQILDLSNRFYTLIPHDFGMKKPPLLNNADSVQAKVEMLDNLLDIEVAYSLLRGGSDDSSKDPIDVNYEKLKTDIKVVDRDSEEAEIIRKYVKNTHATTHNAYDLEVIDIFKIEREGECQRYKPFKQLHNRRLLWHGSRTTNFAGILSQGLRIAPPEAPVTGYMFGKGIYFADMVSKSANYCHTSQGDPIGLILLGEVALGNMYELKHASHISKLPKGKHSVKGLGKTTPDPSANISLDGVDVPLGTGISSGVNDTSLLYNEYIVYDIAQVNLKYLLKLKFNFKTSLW
Target sequence in this assay (Q96SW2 whole entry): as the sequence (Q96SW2 whole entry partner) above

SW-620 = experiment: Cytotoxicity against human SW620 cells assessed as inhibition of cell growth measured after 72 hrs by CCK-8 method; format: functional, cell-based; details: SW-620, 72 h
LoVo = experiment: Cytotoxicity against human LoVo cells assessed as inhibition of cell growth measured after 72 hrs by CCK-8 method; format: functional, cell-based
HCT-116 [3] = experiment: Induction of apoptosis in human HCT-116 cells assessed as necrotic cells at 2.5 nM measured after 72 hrs by annexin V/FITC and PI staining based flow cytometry analysis (reference value: 0.16%); format: functional
HCT-116 [4] = experiment: Cytotoxicity against human HCT-116 cells assessed as inhibition of cell growth measured after 72 hrs by CCK-8 method; format: functional, cell-based; details: HCT-116, 72 h
HCT-116 [5] = experiment: Induction of apoptosis in human HCT-116 cells assessed as early apoptotic cells at 2.5 nM measured after 72 hrs by annexin V/FITC and PI staining based flow cytometry analysis (reference value: 3.43%); format: functional
HCT-116 [6] = experiment: Induction of apoptosis in human HCT-116 cells assessed as viable cells at 2.5 nM measured after 72 hrs by annexin V/FITC and PI staining based flow cytometry analysis (reference value: 89.6%); format: functional; details: read-out: Activity
HCT-116 [7] = experiment: Induction of apoptosis in human HCT-116 cells assessed as late apoptotic cells at 2.5 nM measured after 72 hrs by annexin V/FITC and PI staining based flow cytometry analysis (reference value: 6.80%); format: functional
[8] = Cytotoxicity against HEK293T cells assessed as inhibition of cell growth measured after 72 hrs by CCK-8 method; format: toxicity, cell-based, HEK-293T; details: human
[9] = Cytotoxicity against human BEAS-2B cells assessed as inhibition of cell growth measured after 72 hrs by CCK-8 method; format: toxicity, cell-based

Question: Which results are given for `NC(=O)c1cccc2cn(-c3ccc([C@@H]4CCCN(C(=O)C5CCN(CC6CCN(c7ccc8c(c7)C(=O)N(C7CCC(=O)NC7=O)C8=O)CC6)CC5)C4)cc3)nc12` (some centres undefined)?
Answer: Emax [1]: 30.2%; DC50 [2]: > 20 µM

Question: With `NC(=O)c1cccc2cn(-c3ccc([C@@H]4CCCN(C(=O)COCCOCCOCCOCCNc5ccc6c(c5)C(=O)N(C5CCC(=O)NC5=O)C6=O)C4)cc3)nc12` (some centres undefined) as the compound, how does the Emax [1] read?
Answer: 78.9%

Question: What about the DC50 [2] of the same compound?
Answer: 0.06 µM

Question: For `NC(=O)c1cccc2cn(-c3ccc([C@@H]4CCCN(C(=O)CC5CCN(C(=O)CC6CCN(C(=O)C7CCN(c8ccc9c(c8)C(=O)N(C8CCC(=O)NC8=O)C9=O)CC7)CC6)CC5)C4)cc3)nc12` (some centres undefined), which Emax [1] is on record?
Answer: 6.96%

Question: And the DC50 [2]?
Answer: > 20 µM

Question: With `NC(=O)c1cccc2cn(-c3ccc([C@@H]4CCCNC4)cc3)nc12` [NIRAPARIB] as the compound, how does the IC50 (SW-620) read?
Answer: 0.49 µM

Question: For `NC(=O)c1cccc2cn(-c3ccc([C@@H]4CCCN(C(=O)COCCOCCNc5ccc6c(c5)C(=O)N(C5CCC(=O)NC5=O)C6=O)C4)cc3)nc12` (some centres undefined), which Emax [1] is on record?
Answer: 49.1%

Question: What about the DC50 [2] of the same compound?
Answer: > 20 µM

Question: With `NC(=O)c1cccc2cn(-c3ccc([C@@H]4CCCN(C(=O)COCCOCCOCCOCCOCCNc5ccc6c(c5)C(=O)N(C5CCC(=O)NC5=O)C6=O)C4)cc3)nc12` (some centres undefined) as the compound, how does the Emax [1] read?
Answer: 47.7%

Question: And the DC50 [2]?
Answer: 19.1 µM

Question: For `NC(=O)c1cccc2cn(-c3ccc([C@@H]4CCCN(C(=O)CC5CCN(CCC6CCN(CC7CCN(c8ccc9c(c8)C(=O)N(C8CCC(=O)NC8=O)C9=O)C7)CC6)CC5)C4)cc3)nc12` (some centres undefined), which Emax [1] is on record?
Answer: 33.6%

Question: What about the DC50 [2] of the same compound?
Answer: > 20 µM

Question: Which Emax [1] does the source give for `NC(=O)c1cccc2cn(-c3ccc([C@@H]4CCCN(C(=O)C5CCN(CC6CN(c7ccc8c(c7)C(=O)N(C7CCC(=O)NC7=O)C8=O)C6)CC5)C4)cc3)nc12` (some centres undefined) here?
Answer: 53.9%

Question: What about the DC50 [2] of the same compound?
Answer: 19 µM

Question: Which Emax [1] does the source give for `NC(=O)c1cccc2cn(-c3ccc([C@@H]4CCCN(C(=O)CC5CCN(CCC6CCN(c7ccc8c(c7)C(=O)N(C7CCC(=O)NC7=O)C8=O)CC6)CC5)C4)cc3)nc12` (some centres undefined) here?
Answer: 30.1%

Question: What about the DC50 [2] of the same compound?
Answer: > 20 µM

Question: For `NC(=O)c1cccc2cn(-c3ccc([C@@H]4CCCN(C(=O)CC5CCN(C(=O)CC6CCN(c7ccc8c(c7)C(=O)N(C7CCC(=O)NC7=O)C8=O)CC6)CC5)C4)cc3)nc12` (some centres undefined), which DC50 [2] is on record?
Answer: > 20 µM

Question: What does the source list for `NC(=O)c1cccc2cn(-c3ccc([C@@H]4CCCN(C(=O)C5CCN(CC6CCN(c7ccc8c(c7)C(=O)N(C7CCC(=O)NC7=O)C8=O)C6)CC5)C4)cc3)nc12` (some centres undefined)?
Answer: Emax [1]: 32.8%; DC50 [2]: > 20 µM

Question: Which IC50 (LoVo) does the source give for `CCc1c2c(nc3ccc(O)cc13)-c1cc3c(c(=O)n1C2)COC(=O)[C@]3(O)CC` [7-ETHYL-10-HYDROXYCAMPTOTHECIN] here?
Answer: 0.0029 µM

Question: And the Activity (HCT-116 [3])?
Answer: 0.77%

Question: And the IC50 (HCT-116 [4])?
Answer: 0.0029 µM

Question: What about the Activity (HCT-116 [5]) of the same compound?
Answer: 5.48%

Question: And the viability at 0.0025 µM (HCT-116 [6])?
Answer: 76.7%

Question: And the Activity (HCT-116 [7])?
Answer: 17.1%

Question: Which Emax [1] does the source give for `NC(=O)c1cccc2cn(-c3ccc([C@@H]4CCCN(C(=O)COCCOCCOCCNc5ccc6c(c5)C(=O)N(C5CCC(=O)NC5=O)C6=O)C4)cc3)nc12` (some centres undefined) here?
Answer: 37.4%

Question: What about the DC50 [2] of the same compound?
Answer: > 20 µM

Question: Which Emax [1] does the source give for `NC(=O)c1cccc2cn(-c3ccc([C@@H]4CCCN(C(=O)CC5CCN(C(=O)CC6CCN(CC7CCN(c8ccc9c(c8)C(=O)N(C8CCC(=O)NC8=O)C9=O)CC7)CC6)CC5)C4)cc3)nc12` (some centres undefined) here?
Answer: 65.1%

Question: What about the DC50 [2] of the same compound?
Answer: 0.23 µM

Question: Which Emax [1] does the source give for `NC(=O)c1cccc2cn(-c3ccc([C@@H]4CCCN(C(=O)CCCCCCCCNc5ccc6c(c5)C(=O)N(C5CCC(=O)NC5=O)C6=O)C4)cc3)nc12` (some centres undefined) here?
Answer: 58.8%

Question: What about the DC50 [2] of the same compound?
Answer: 2.21 µM

Question: For `NC(=O)c1cccc2cn(-c3ccc([C@@H]4CCCN(C(=O)CCCCNc5ccc6c(c5)C(=O)N(C5CCC(=O)NC5=O)C6=O)C4)cc3)nc12` (some centres undefined), which Emax [1] is on record?
Answer: 29.8%

Question: What about the DC50 [2] of the same compound?
Answer: > 20 µM

Question: With `NC(=O)c1cccc2cn(-c3ccc([C@@H]4CCCN(C(=O)CC5CCN(C(=O)CC6CCN(CC7CCN(c8ccc9c(c8)C(=O)N(C8CCC(=O)NC8=O)C9=O)C7)CC6)CC5)C4)cc3)nc12` (some centres undefined) as the compound, how does the Emax [1] read?
Answer: 49.8%

Question: And the DC50 [2]?
Answer: 20.1 µM

Question: With `NC(=O)c1cccc2cn(-c3ccc([C@@H]4CCCN(C(=O)CC5CCN(C(=O)C6CCN(c7ccc8c(c7)C(=O)N(C7CCC(=O)NC7=O)C8=O)CC6)CC5)C4)cc3)nc12` (some centres undefined) as the compound, how does the Emax [1] read?
Answer: 35.6%

Question: What about the DC50 [2] of the same compound?
Answer: > 20 µM

Question: With `O=C(CCCCCCCCCCC(=O)N1CCN(C(=O)c2cc(Cc3n[nH]c(=O)c4ccccc34)ccc2F)CC1)NCCNc1cccc2c1C(=O)N(C1CCC(=O)NC1=O)C2=O` (centres undefined) as the compound, how does the IC50 (LoVo) read?
Answer: > 10 µM

Question: What about the IC50 at 72 h [8] of the same compound?
Answer: 1.86 µM

Question: What about the IC50 (SW-620) of the same compound?
Answer: > 10 µM

Question: What about the IC50 at 72 h [9] of the same compound?
Answer: 3.7 µM

Question: Which results are given for `NC(=O)c1cccc2cn(-c3ccc([C@@H]4CCCN(C(=O)C5CCN(C(=O)C6CCN(c7ccc8c(c7)C(=O)N(C7CCC(=O)NC7=O)C8=O)CC6)CC5)C4)cc3)nc12` (some centres undefined)?
Answer: Emax [1]: 15.7%; DC50 [2]: > 20 µM

Question: Which Emax [1] does the source give for `NC(=O)c1cccc2cn(-c3ccc([C@@H]4CCCN(C(=O)CC5CCN(CC6CCN(c7ccc8c(c7)C(=O)N(C7CCC(=O)NC7=O)C8=O)CC6)CC5)C4)cc3)nc12` (some centres undefined) here?
Answer: 59.4%

Question: What about the DC50 [2] of the same compound?
Answer: 15.6 µM

Question: For `NC(=O)c1cccc2cn(-c3ccc([C@@H]4CCCN(C(=O)CC5CCN(CC6CN(c7ccc8c(c7)C(=O)N(C7CCC(=O)NC7=O)C8=O)C6)CC5)C4)cc3)nc12` (some centres undefined), which Emax [1] is on record?
Answer: 31.8%

Question: And the DC50 [2]?
Answer: > 20 µM

Question: For `NC(=O)c1cccc2cn(-c3ccc([C@@H]4CCCN(CCC5CCN(CCC6CCN(CC7CN(c8ccc9c(c8)C(=O)N(C8CCC(=O)NC8=O)C9=O)C7)CC6)CC5)C4)cc3)nc12` (some centres undefined), which Emax [1] is on record?
Answer: 71%

Question: And the DC50 [2]?
Answer: 0.03 µM

Question: For `NC(=O)c1cccc2cn(-c3ccc([C@@H]4CCCN(C(=O)CC5CCN(C(=O)CC6CCN(CC7CN(c8ccc9c(c8)C(=O)N(C8CCC(=O)NC8=O)C9=O)C7)CC6)CC5)C4)cc3)nc12` (some centres undefined), which Emax [1] is on record?
Answer: 47.6%

Question: What about the DC50 [2] of the same compound?
Answer: 16.3 µM

Question: With `NC(=O)c1cccc2cn(-c3ccc([C@@H]4CCCN(C(=O)CC5CCN(CC6CCN(c7ccc8c(c7)C(=O)N(C7CCC(=O)NC7=O)C8=O)C6)CC5)C4)cc3)nc12` (some centres undefined) as the compound, how does the DC50 [2] read?
Answer: > 20 µM

Question: Which Emax [1] does the source give for `NC(=O)c1cccc2cn(-c3ccc([C@@H]4CCCN(C(=O)CC5CCN(CCC6CCN(CC7CCN(c8ccc9c(c8)C(=O)N(C8CCC(=O)NC8=O)C9=O)CC7)CC6)CC5)C4)cc3)nc12` (some centres undefined) here?
Answer: 57.1%

Question: What about the DC50 [2] of the same compound?
Answer: 0.04 µM

Question: What does the source list for `NC(=O)c1cccc2cn(-c3ccc([C@@H]4CCCN(C(=O)CCCCCCNc5ccc6c(c5)C(=O)N(C5CCC(=O)NC5=O)C6=O)C4)cc3)nc12` (some centres undefined)?
Answer: Emax [1]: 37.3%; DC50 [2]: > 20 µM

Question: With `NC(=O)c1cccc2cn(-c3ccc([C@@H]4CCCN(C(=O)CC5CCN(CCC6CCN(CC7CN(c8ccc9c(c8)C(=O)N(C8CCC(=O)NC8=O)C9=O)C7)CC6)CC5)C4)cc3)nc12` (some centres undefined) as the compound, how does the Emax [1] read?
Answer: 83.6%

Question: And the DC50 [2]?
Answer: 0.5 µM
